Here are results for 24 compounds from US8623859B2, “Bradykinin B1 antagonists” (Evotec AG, priority 2008, dated 2014).

Structures can show the parent of a compound that is named as a salt.

The experiment deals with T1, human B1 (Homo sapiens, UniProt P46663).
T1 construct: host or cells: CHO-K1
T1 sequence (P46663 1-353): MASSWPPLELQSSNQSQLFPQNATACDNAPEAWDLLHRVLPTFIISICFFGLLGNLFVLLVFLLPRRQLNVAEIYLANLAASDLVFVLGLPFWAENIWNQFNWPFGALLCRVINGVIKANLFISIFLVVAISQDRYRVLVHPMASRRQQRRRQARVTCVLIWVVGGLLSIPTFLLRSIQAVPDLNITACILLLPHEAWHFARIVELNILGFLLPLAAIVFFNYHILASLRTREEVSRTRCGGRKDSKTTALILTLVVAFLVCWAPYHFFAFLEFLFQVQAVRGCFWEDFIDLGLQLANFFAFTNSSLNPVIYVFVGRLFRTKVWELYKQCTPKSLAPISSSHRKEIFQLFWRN
In words: Calcium flux assay for Bradykinin B1 antagonist, CHO-K1 cell line expressing human B1. The experiment is classed as cell-based. The settings on record: CHO-K1 cells expressing human B1, agonist Lys-(Des-Arg)-Bradykinin, read-out: Potency (IC50 value against human B1). In a few lines:
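Inhibition of B1 agonist-evoked intracellular Ca2+ rise was followed by continuous fluorescence at 538 nm, with integrated, background-normalized signals plotted versus log compound concentration. Test compounds (eight 10-fold dilutions, triplicate, 1% DMSO final) were added 30 min at 25° C beforehand to Fluo-4AM-loaded human B1 CHO-K1 cells in pH 7.4 assay buffer.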
On the technique in general: A change in cytosolic calcium serves as a functional read-out for many receptors and channels.

One may read the IC50 as the concentration needed to halve the response being measured.

Consider `COc1cc(C)c(S(=O)(=O)N(C)Cc2cc(C(=O)N(C)Cc3ccc(CN4CC(OC)C4)cc3)co2)c(C)c1` [Ex 133, N-{4-[(3-Methoxyazetidin-1-yl)methyl]benzyl}-5-({[(4-methoxy-2,6-dimethylphenyl)sulfonyl](methyl)amino}methyl)-N-methylfuran-3-carboxamide], for which the IC50 is 100 to 1000 nM.

As to `COc1cc(C)c(S(=O)(=O)N(C)Cc2cc(C(=O)N(C)Cc3ccc(CN4CCCC(O)C4)cc3)co2)c(C)c1` (stereo not drawn) [Ex 134, N-{4-[(3-Hydroxypiperidin-1-yl)methyl]benzyl}-5-({[(4-methoxy-2,6-dimethylphenyl)sulfonyl](methyl)amino}methyl)-N-methylfuran-3-carboxamide], the 50% inhibitory concentration (IC50) was less than 10 nM.

Turning to `COc1cc(C)c(S(=O)(=O)N(C)Cc2cc(C(=O)N(C)Cc3ccc(CN4CCC(O)C4)cc3)co2)c(C)c1` (stereo not drawn) [Ex 135, N-{4-[(3-Hydroxypyrrolidin-1-yl)methyl]benzyl}-5-({[(4-methoxy-2,6-dimethylphenyl)sulfonyl](methyl)amino}methyl)-N-methylfuran-3-carboxamide], the IC50 lay in the range of 10 to 100 nM.

`COc1cc(C)c(S(=O)(=O)N(C)Cc2cc(C(=O)N(C)Cc3ccc(CN4CCC(N(C)C)C4)cc3)co2)c(C)c1` (stereo not drawn) [Ex 136, N-(4-{[3-(Dimethylamino)pyrrolidin-1-yl]methyl}benzyl)-5-({[(4-methoxy-2,6-dimethylphenyl)sulfonyl](methyl)amino}methyl)-N-methylfuran-3-carboxamide]: the IC50 is 10 to 100 nM.

As to `COc1cc(C)c(S(=O)(=O)N(C)Cc2cc(C(=O)N(C)Cc3nnc(CN4CCCC4)s3)co2)c(C)c1` [Ex 137, 5-({[(4-Methoxy-2,6-dimethylphenyl)sulfonyl](methyl)amino}methyl)-N-methyl-N-{[5-(pyrrolidin-1-ylmethyl)-1,3,4-thiadiazol-2-yl]methyl}furan-3-carboxamide], the concentration for half-maximal inhibition (IC50) was 100 to 1000 nM.

As for `COc1cc(C)c(S(=O)(=O)N(C)Cc2cc(C(=O)N(C)Cc3nc(CN4CCCC4)cs3)co2)c(C)c1` [Ex 138, 5-({[(4-Methoxy-2,6-dimethylphenyl)sulfonyl](methyl)amino}methyl)-N-methyl-N-{[4-(pyrrolidin-1-ylmethyl)-1,3-thiazol-2-yl]methyl}furan-3-carboxamide], the IC50 was less than 10 nM.

As to `COc1cc(C)c(S(=O)(=O)N(Cc2cc(C(=O)N(C)Cc3ccc(CN4CCC(O)CC4)cc3)co2)C2CC2)c(C)c1` [Ex 139, 5-({Cyclopropyl[(4-methoxy-2,6-dimethylphenyl)sulfonyl]amino}methyl)-N-{4-[(4-hydroxypiperidin-1-yl)methyl]benzyl}-N-methylfuran-3-carboxamide], the IC50 lay within 10 to 100 nM.

`COc1cc(C)c(S(=O)(=O)N(Cc2cc(C(=O)N(C)Cc3ccc(CN4CCC(N(C)C)C4)cc3)co2)C2CC2)c(C)c1` (stereo not drawn) [Ex 140, 5-({Cyclopropyl[(4-methoxy-2,6-dimethylphenyl)sulfonyl]amino}methyl)-N-(4-{[3-(dimethylamino)pyrrolidin-1-yl]methyl}benzyl)-N-methylfuran-3-carboxamide]: the IC50 was 10 to 100 nM.

Consider `COc1cc(C)c(S(=O)(=O)N(Cc2cc(C(=O)N(C)Cc3ccc(CN4CCC(O)C4)cc3)co2)C2CC2)c(C)c1` (stereo not drawn) [Ex 141, 5-({Cyclopropyl[(4-methoxy-2,6-dimethylphenyl)sulfonyl]amino}methyl)-N-{4-[(3-hydroxypyrrolidin-1-yl)methyl]benzyl}-N-methylfuran-3-carboxamide], for which the 50% inhibitory concentration (IC50) was 10 to 100 nM.

As for `COc1cc(C)c(S(=O)(=O)N(Cc2cc(C(=O)N(C)Cc3ccc(CN4CCCC(O)C4)cc3)co2)C2CC2)c(C)c1` (stereo not drawn) [Ex 142, 5-({Cyclopropyl[(4-methoxy-2,6-dimethylphenyl)sulfonyl]amino}methyl)-N-{4-[(3-hydroxypiperidin-1-yl)methyl]benzyl}-N-methylfuran-3-carboxamide], the IC50 was less than 10 nM.

`COc1cc(C)c(S(=O)(=O)N(Cc2cc(C(=O)N(C)Cc3ccc(CN4CCC(OC)CC4)cc3)co2)C2CC2)c(C)c1` [Ex 143, 5-({Cyclopropyl[(4-methoxy-2,6-dimethylphenyl)sulfonyl]amino}methyl)-N-{4-[(4-methoxypiperidin-1-yl)methyl]benzyl}-N-methylfuran-3-carboxamide]: the 50% inhibitory concentration (IC50) is 10 to 100 nM.

For the compound `COc1cc(C)c(S(=O)(=O)N(Cc2cc(C(=O)N(C)Cc3ccc(CN4CCCC(OC)C4)cc3)co2)C2CC2)c(C)c1` (stereo not drawn) [Ex 144, 5-({Cyclopropyl[(4-methoxy-2,6-dimethylphenyl)sulfonyl]amino}methyl)-N-{4-[(3-methoxypiperidin-1-yl)methyl]benzyl}-N-methylfuran-3-carboxamide], the IC50 lay within 100 to 1000 nM.

As to `COc1cc(C)c(S(=O)(=O)N(Cc2cc(C(=O)N(C)Cc3ccc(CN4CCC(OC)C4)cc3)co2)C2CC2)c(C)c1` (stereo not drawn) [Ex 145, 5-({Cyclopropyl[(4-methoxy-2,6-dimethylphenyl)sulfonyl]amino}methyl)-N-{4-[(3-methoxypyrrolidin-1-yl)methyl]benzyl}-N-methylfuran-3-carboxamide], the IC50 lay within 10 to 100 nM.

For `COc1cc(C)c(S(=O)(=O)N(Cc2cc(C(=O)N(C)Cc3ccc(CN4CCC(NC(C)=O)C4)cc3)co2)C2CC2)c(C)c1` (stereo not drawn) [Ex 146, N-(4-{[3-(Acetylamino)pyrrolidin-1-yl]methyl}benzyl)-5-({cyclopropyl[(4-methoxy-2,6-dimethylphenyl)sulfonyl]amino}methyl)-N-methylfuran-3-carboxamide], the IC50 was 100 to 1000 nM.

As for `COc1cc(C)c(S(=O)(=O)N(Cc2cc(C(=O)N(C)Cc3ccc(CN4CCC(C(=O)N(C)C)C4)cc3)co2)C2CC2)c(C)c1` (stereo not drawn) [Ex 147, 1-(4-{[{[5-({Cyclopropyl[(4-methoxy-2,6-dimethylphenyl)sulfonyl]amino}methyl)furan-3-yl]carbonyl}(methyl)amino]methyl}benzyl)-N,N-dimethylpyrrolidine-3-carboxamide], the IC50 was in the range of 10 to 100 nM.

For the compound `COc1cc(C)c(S(=O)(=O)N(Cc2cc(C(=O)N(C)Cc3ccc(CN4CC(O)C4)cc3)co2)C2CC2)c(C)c1` [Ex 148, 5-({Cyclopropyl[(4-methoxy-2,6-dimethylphenyl)sulfonyl]amino}methyl)-N-{4-[(3-hydroxyazetidin-1-yl)methyl]benzyl}-N-methylfuran-3-carboxamide], the IC50 was 10 to 100 nM.

Turning to `COc1cc(C)c(S(=O)(=O)N(Cc2cc(C(=O)N(C)Cc3ccc(CN4CC(OC)C4)cc3)co2)C2CC2)c(C)c1` [Ex 149, 5-({Cyclopropyl[(4-methoxy-2,6-dimethylphenyl)sulfonyl]amino}methyl)-N-{4-[(3-methoxyazetidin-1-yl)methyl]benzyl}-N-methylfuran-3-carboxamide], the 50% inhibitory concentration (IC50) was in the range of 100 to 1000 nM.

On to `CCN(Cc1ccc(CN2CCCC2)cc1)C(=O)c1coc(CN(C)S(=O)(=O)c2c(C)cc(OC)cc2C)c1` [Ex 150, N-Ethyl-5-({[(4-methoxy-2,6-dimethylphenyl)sulfonyl](methyl)amino}methyl)-N-[4-(pyrrolidin-1-ylmethyl)benzyl]furan-3-carboxamide trifluoroacetate], for which the IC50 was in the range of 10 to 100 nM.

Take `COc1cc(C)c(S(=O)(=O)N(C)Cc2cc(C(=O)NCc3cc(CN4CCCC4)ccc3F)co2)c(C)c1` [Ex 151, N-[2-Fluoro-5-(pyrrolidin-1-ylmethyl)benzyl]-5-({[(4-methoxy-2,6-dimethylphenyl)sulfonyl](methyl)amino}methyl)furan-3-carboxamide trifluoroacetate]: the IC50 lay in the range of 100 to 1000 nM.

As for `COc1cc(C)c(S(=O)(=O)N(C)Cc2cc(C(=O)NCc3ccc(CN4CCCC4)c(F)c3)co2)c(C)c1` [Ex 152, N-[3-Fluoro-4-(pyrrolidin-1-ylmethyl)benzyl]-5-({[(4-methoxy-2,6-dimethylphenyl)sulfonyl](methyl)amino}methyl)furan-3-carboxamide trifluoroacetate], the IC50 is 100 to 1000 nM.

On to `COc1cc(C)c(S(=O)(=O)N(Cc2cc(C(=O)NCc3cc(CN4CCCC4)ccc3F)co2)C2CC2)c(C)c1` [Ex 153, 5-({Cyclopropyl[(4-methoxy-2,6-dimethylphenyl)sulfonyl]amino}methyl)-N-[2-fluoro-5-(pyrrolidin-1-ylmethyl)benzyl]furan-3-carboxamide trifluoroacetate], for which the IC50 was in the range of 100 to 1000 nM.

As for `COc1cc(C)c(S(=O)(=O)N(Cc2cc(C(=O)NCc3ccc(CN4CCCC4)c(F)c3)co2)C2CC2)c(C)c1` [Ex 154, 5-({Cyclopropyl[(4-methoxy-2,6-dimethylphenyl)sulfonyl]amino}methyl)-N-[3-fluoro-4-(pyrrolidin-1-ylmethyl)benzyl]furan-3-carboxamide trifluoroacetate], the IC50 was 100 to 1000 nM.

Turning to `COc1cc(C)c(S(=O)(=O)N(C)Cc2cc(C(=O)NCc3cc(F)cc(CN4CCCC4)c3)co2)c(C)c1` [Ex 155, N-[3-Fluoro-5-(pyrrolidin-1-ylmethyl)benzyl]-5-({[(4-methoxy-2,6-dimethylphenyl)sulfonyl](methyl)amino}methyl)furan-3-carboxamide trifluoroacetate], the concentration for half-maximal inhibition (IC50) lay within 10 to 100 nM.

Consider `COc1cc(C)c(S(=O)(=O)N(C)Cc2cc(C(=O)N(C)Cc3cc(CN4CCCC4)ccc3F)co2)c(C)c1` [Ex 156, N-[2-Fluoro-5-(pyrrolidin-1-ylmethyl)benzyl]-5-({[(4-methoxy-2,6-dimethylphenyl)sulfonyl](methyl)amino}methyl)-N-methylfuran-3-carboxamide trifluoroacetate], for which the IC50 is 10 to 100 nM.
